Measured values: patent US5219879A, “Heterocyclic steroid compounds” (Du Pont Merck Pharmaceutical Company, priority 1991, dated 1993)
pIC50: −log10 of the molar value.

Assays:
Rhizoctonia solani = experiment: Example F: rice sheath blight on rice seedlings; assay type: in vivo; conditions: 220 ppm, 0 = no disease control, 100 = 100% disease control
Method: The test compounds were dissolved in acetone in an amount equal to 6% of the final volume and then suspended at a concentration of 220 ppm in purified water containing 250 ppm of the surfactant TREM 014 (polyhydric alcohol esters). This suspension was sprayed to the point of run-off on rice seedlings. The following day plants were inoculated with a mycelial suspension of Rhizoctonia solani, the causal agent of rice sheath blight, and incubated in a saturated humidity chamber at 27° C. for 48 hours and then in a growth chamber at 29° C. for 4 days, when disease ratings were made. […] A dashed entry indicates the specified test was not performed.

[1] = tested on: 3-Hydroxy-3-Methylglutaryl Coenzyme A Reductase (HMGR); experiment: 3-Hydroxy-3-Methylglutaryl Coenzyme A Reductase (HMGR) Suppression Assay; assay type: cell-based, Chinese Hamster (CHO cells); conditions: CHO cells, 6 hr. at 37°; read-out: IC50 (amount of compound required to suppress HMGR activity by 50% relative to controls)
Method: The ability of the compounds of Formula I to suppress the activity of HMGR, the rate limiting enzyme of cholesterol biosynthesis, was tested as follows.
Chinese Hamster Ovary (CHO) cells were divided twice weekly and were maintained in McCoy's 5A medium supplemented with 1% carbosil delipidated Fetal Bovine System (FBS) (obtained from Gibco Laboratories, Chagrin Falls, Ohio). Cells were harvested during the logarithmic phase of growth and cell cultures were prepared by adding […] cells to each well in a 24 well cluster dish (obtained from Costar, Data Packaging Corp., Cambridge, Mass.) employing 1 ml of the above medium per each well. […] Control cells were treated in an identical fashion to those which received test compound, except they were incubated with the BSA and ethanol suspension only.
Specifically, the medium in each well was aspirated and the cells rinsed with a 50 mM solution of phosphate buffered saline (PBS). One ml of 30 mg/ml of digitonin in CSK buffer (prepared using 10 mM Pipes [piperazine-N,N'-bis (2-ethansulfonic) acid], 100 mM KCl, 2.5 mM MgCl2, 300 mM sucrose, 1 mM EGTA, pH 6.8) was added to each well and incubated for 10 min. at 22° to permeabilize the cells. The buffer was carefully aspirated and the wells were rinsed twice each time with 1 ml of PBS. HMGR activity was measured directly by adding 75 ml of PIB buffer (50 mM potassium phosphate, 1 mM Na2 EDTA, 10 mM dithiothreitol, pH 7.4) to each well and incubating the cells for 30 minutes at 37° as described above. […] The assay mixture was incubated for 30 min. at 37° and terminated by the addition of 70 ml of [^3 H]-mevalonicacid (35,000 DPM/assay), 0.15 mg/ml in 3N HCl.
The reaction was left to lactonize for an additional 30 min. at 37° or overnight at room temperature.
Reaction products were separated by thin layer chromatography on silica gel G (obtained from Analtech, Newark, Del.) developed in an unsaturated environment with acetone:benzene (3:2, v:v). The band corresponding to mevalonolactone was identified by exposure to iodine vapor and was scraped into counting vials. The extent of conversion of starting substrate, HMG-CoA, to mevalonic acid was determined by liquid scintillation counting in Biofluor (obtained from New England Nuclear, Boston, Mass.). Corrections for recovery and blank values were made for each sample. Protein determinations were made by Bio-Rad (Bio-Rad, Richmond, Calif.) dye binding assay according to the manufacturer's instruction using bovine serum albumin as standard. Cellular protein was solubilized from culture dishes by the addition of 20 μl of 16N KOH and assayed directly for protein amount. Suppression values are expressed as the amount of compound required to suppress HMGR activity by 50% relative to that of the controls.

Puccinia recondita = experiment: Example G: wheat leaf rust on wheat seedlings; assay type: in vivo; conditions: 220 ppm, 100 = 100% disease control
Method: (§1) The test compounds were dissolved in acetone in an amount equal to 6% of the final volume and then suspended at a concentration of 220 ppm in purified water containing 250 ppm of the surfactant TREM 014 (polyhydric alcohol esters). This suspension was sprayed to the point of run-off on wheat seedlings. The following day plants were inoculated with a spore suspension of Puccinia recondita, the causal agent of wheat leaf rust, and incubated in a saturated humidity chamber at 20° C. for 48 hours and then in a growth chamber at 20° C. for 8 days, when disease ratings were made. […] A dashed entry indicates the specified test was not performed.

[2] = tested on: Ersiphe graminis f. sp. tritici; experiment: Example D: wheat powdery mildew on wheat seedlings; assay type: in vivo; conditions: 200 ppm, 100 = 100% disease control
Method: The test compounds were dissolved in acetone in an amount equal to 6% of the final volume and then suspended at a concentration of 200 ppm in purified water containing 250 ppm of the surfactant TREM 014 (polyhydric alcohol esters). This suspension was sprayed to the point of run-off on wheat seedlings. […] A dashed entry indicates the specified test was not performed.

Pyricularia oryzae = assay type: in vivo; conditions: rice seedlings, 200 ppm; 100 = 100% disease control
Botrytis cinerea [3] = experiment: Example K: cucumber grey mold on cucumber seedlings; assay type: in vivo; conditions: 200 ppm, 100 = 100% disease control
Method: as §1, with “200” for “220”, “cucumber” for “wheat”, “Botrytis cinerea,” for “Puccinia recondita,”, “cucumber grey mold,” for “wheat leaf rust,”, “4 days” for “48 hours and then in a growth chamber at 20° C. for 8 days,”

Venturia inaequalis = experiment: Example A: apple scab on apple seedlings; assay type: in vivo; conditions: 200 ppm, sprayed the day before inoculation, 100 = 100% disease control
Method: (§2) The test compounds were dissolved in acetone in an amount equal to 6% of the final volume and then suspended at a concentration of 200 ppm in purified water containing 250 ppm of the surfactant TREM 014 (polyhydric alcohol esters). This suspension was sprayed to the point of run-off on apple seedlings. The following day plants were inoculated with a spore suspension of Venturia inaequalis, the casual agent of apple scab, and incubated in a saturated humidity chamber at 20° C. for 24 hours and then in a growth chamber at 22° C. for 11 days, when disease ratings were made. […] A dashed entry indicates the specified test was not performed.

peanut seedlings = experiment: Example B: plant disease control on peanut seedlings; assay type: in vivo; conditions: 200 ppm, 100 = 100% disease control
Method: The test compounds were dissolved in acetone in an amount equal to 6% of the final volume and then suspended at a concentration of 200 ppm in purified water containing 250 ppm of the surfactant TREM […] (polyhydric alcohol esters). This suspension was sprayed to the point of run-off on peanut seedlings. The following day plants were incubated in a saturated humidity chamber at 22° C. for 24 hours, then in a high humidity chamber at 27° C. for 7 days, and then in a growth chamber at 29° C. for 7 days, when disease ratings were made.
In this table, a rating of 100 indicated 100% disease control, and a rating of 0 indicates no disease control relative to untreated plants that were inoculated and incubated as described in each Example. A dashed entry indicates the specified test was not performed.

Botrytis cinerea [4] = experiment: Example J: grape grey mold on grape seedlings; assay type: in vivo; conditions: 200 ppm, 100 = 100% disease control
Method: as §1, with “200” for “220”, “grape” for “wheat”, “Botrytis cinerea,” for “Puccinia recondita,”, “grape grey mold,” for “wheat leaf rust,”, “96” for “48”, “hours” for “hours and then in a growth chamber at 20° C. for 8 days,”

Botyrtis cinerea = experiment: Example C: bean grey mold on broad bean seedlings; assay type: in vivo; conditions: 200 ppm, 100 = 100% disease control
Method: as §2, with “[…]” for “014”, “broad bean” for “apple”, “Botyrtis cinerea,” for “Venturia inaequalis,”, “causal” for “casual”, “bean grey mold,” for “apple scab,”, “hours” for “hours and then in a growth chamber at 22° C. for 11 days,”

Plasmopara victicola = experiment: Example I: grape downy mildew on grape seedlings; assay type: in vivo; conditions: 200 ppm, 100 = 100% disease control
Method: The test compounds were dissolved in acetone in an amount equal to 6% of the final volume and then suspended at a concentration of 200 ppm in purified water containing 250 ppm of the surfactant TREM 014 (polyhydric alcohol esters). This suspension was sprayed to the point of run-off on grape seedlings. The following day plants were inoculated with a spore suspension of Plasmopara victicola, the causal agent of grape downy mildew, and incubated in a saturated humidity chamber at 20° C. for 24 hours and then in a growth chamber at 20° C. for 7 days, and then held in a saturated humidity chamber at 20° C. for 24 hours, when disease ratings were made. […] A dashed entry indicates the specified test was not performed.

Phytophthora infestans = assay type: in vivo; conditions: tomato seedlings, 200 ppm; 100 = 100% disease control
[5] = Lowering Blood Cholesterol Levels in Hamsters; assay type: in vivo, Male Golden Syrian hamsters; conditions: 0.2% (w/w) in feed, 7 days; means ± SEM; N = 10; pair-fed control 133.0 ± 4.0 (N = 20)
Method: Male Golden Syrian hamsters (50-60 grams) were obtained from Charles River, Inc. (Wilmington, Mass.).
Animals were housed in individual suspension cages and were maintained on a light cycle consisting of 12 hours of light followed by 12 hours of dark. Animals were allowed free access to water and feed (Agway ground chow, RMH 3200, Agway, Syracuse, N.Y.) containing 1% (w/w) corn oil) for a minimum of 4 weeks.
Following this stabilization period a sample of blood was collected by orbital sinus bleeding under light ether anesthesia into heparinized capillary tubes. Plasma was separated by centrifugation (600×g for 10 minutes) and plasma cholesterols were determined by an autoanalyzer (Centrifichem 600, Baker Instruments, Allentown, Pa.). Based upon measured plasma cholesterol values, the animals were randomized into two groups such that the mean plasma cholesterol values were identical for both groups.
Animals in the two groups were then placed on one of two diets: (1) Diet A, consisting of ground chow plus 1% (w/w) corn oil, as described above; or (2) Diet B, consisting of Diet A plus 0.2% (w/w) of a test compound. Animals on Diet B, the treated animals, were allowed free access to feed and water, while animals on Diet A were pair-matched with Diet B animals and served as pair-fed controls. […] Total plasma cholesterol levels were determined as described above. […]

SMILES | disease control rating, Example F (Rhizoctonia solani) [%] | pIC50 [1] | disease control rating, Example G (Puccinia recondita) [%] | disease control rating, Example D [2] [%] | disease control rating, Example E (Pyricularia oryzae) [%] | disease control rating, Example K (Botrytis cinerea [3]) [%] | disease control rating, Example A (Venturia inaequalis) [%] | disease control rating, Example B (peanut seedlings) [%] | disease control rating, Example J (Botrytis cinerea [4]) [%] | disease control rating, Example C (Botyrtis cinerea) [%] | disease control rating, Example I (Plasmopara victicola) [%] | disease control rating, Example H (Phytophthora infestans) [%] | Plasma Cholesterol, Treated [5] [mg/dl]
CC(C)CCC[C@@H](C)[C@H]1CN=C2C3=C(CC[C@@]21C)[C@@]1(C)CC[C@H](O)C(C)(C)[C@@H]1CC3 [Example 1817] | 0 | 6.30 | 62 | 92 | 1 | 99 | 90 | 25 | 97 | 97 |  |  | 
CC(C)CCC[C@@H](C)[C@H]1CN=C2C3=C(CC[C@@]21C)[C@@]1(C)CC[C@H](O)C[C@@H]1CC3 [Example 1818] | 0 | 6.80 | 100 | 98 | 6 | 100 | 99 | 95 | 78 | 95 | 100 | 94 | 
CC(C)CCC[C@@H](C)[C@H]1CO[C@@]2(C)C3=C(CC[C@]12C)[C@@]1(C)CC[C@H](O)C(C)(C)[C@@H]1CC3 [Example 1, 15-Oxa-dihydrolanosterol] |  | 6.74 |  |  |  |  |  |  |  |  |  |  | 120. ± 2.0
